IC50, selectivity ratio and CC50 data for 34 molecules are collected here from ChEMBL document CHEMBL1275558 (Antimicrob Agents Chemother, 2008).

In one data set the test system is Toxoplasma gondii. The data set can be described thus: Antimicrobial activity against Toxoplasma gondii. The format is functional. The following applies: read-out: ID50 (the source's name).
Data set [1] can be described thus: Therapeutic index, ration of TD50 for human foreskin fibroblast cell infected with Toxoplasma gondii to ID 50 for Toxoplasma gondii. The format is cell-based. As to conditions: read-out: TI.
A short description of data set [2]: Cytotoxicity against human foreskin fibroblast cell infected with Toxoplasma gondii. The data set is classed as cell-based. As to conditions: read-out: TD50 (the source's name).

With `O=C1C(c2c(O)[nH]c3ccc(Cl)cc23)=Nc2ccccc21`, the IC50 in the data set on Toxoplasma gondii worked out at 60 µM. In data set [1], the selectivity ratio was over 8. For the same molecule, the CC50 in data set [2] is over 500 µM.
Take `O=C1C(c2c(O)[nH]c3ccc(S(=O)(=O)O)cc23)=Nc2ccccc21`: the IC50 with Toxoplasma gondii was over 500 µM. Further, the CC50 in data set [2] was over 500 µM.
With `O=C1Nc2cc(Br)ccc2/C1=C1/Nc2ccccc2/C1=N\O` [6BIO], the CC50 in data set [2] turned out to be 16 µM.
For `CC(=O)O/N=C1/C(c2c(O)[nH]c3ccccc23)=Nc2ccccc21`, the IC50 in the data set on Toxoplasma gondii was determined as 0.21 µM. Also, the selectivity ratio in data set [1] is 100. Also, in data set [2], the CC50 worked out at 22 µM.
With `O=C1Nc2ccc(S(=O)(=O)O)cc2/C1=C1/Nc2ccccc2/C1=N\O`, the IC50 in the data set with Toxoplasma gondii is over 500 µM. The CC50 in data set [2] is over 500 µM.
As to `O=C1c2cc(F)ccc2-n2c1nc1ccccc1c2=O`, in the data set on Toxoplasma gondii, the IC50 was 0.002 µM. The selectivity ratio in data set [1] worked out at 31500. Moreover, in data set [2], the CC50 stood at 63 µM.
Take `O=C1Nc2ccc(F)cc2/C1=C1/Nc2ccccc2/C1=N\O`: in the data set with Toxoplasma gondii, the IC50 amounted to 0.52 µM. Also, the selectivity ratio in data set [1] was 120. The CC50 in data set [2] stood at 61 µM.
For `CC(=O)N1C(=O)/C(=C2\Nc3ccccc3C2=O)c2ccccc21` the same measures were 30 µM, over 16 and over 500 µM.
Regarding `O=C1C(c2c(O)[nH]c3ccc([N+](=O)[O-])cc23)=Nc2ccccc21`, the IC50 in the data set with Toxoplasma gondii is over 500 µM. For the same molecule, the CC50 in data set [2] is over 500 µM.
For `O=C1Nc2ccccc2/C1=C1/Nc2ccccc2C1=O` [INDIRUBIN], the IC50 in the data set on Toxoplasma gondii was over 500 µM. The CC50 in data set [2] was over 500 µM.
On to `O=C1C(c2c(O)[nH]c3ccc(Br)cc23)=Nc2ccccc21`, for which, in the data set with Toxoplasma gondii, the IC50 worked out at 27 µM. Further, the selectivity ratio in data set [1] is over 19. Also, the CC50 in data set [2] is over 500 µM.
For `O=C1Nc2ccccc2/C1=C1/Nc2ccccc2/C1=N\OCC(O)CO` (stereo not given), the IC50 in the data set on Toxoplasma gondii was determined as 230 µM. For the same molecule, the selectivity ratio in data set [1] was over 2. Further, in data set [2], the CC50 was over 500 µM.
In the case of `O=C1c2cc(I)ccc2-n2c1nc1ccccc1c2=O`, the IC50 in the data set with Toxoplasma gondii worked out at 0.02 µM. The CC50 in data set [2] was over 500 µM.
For `O=C1C(c2c(O)[nH]c3cc(Cl)ccc23)=Nc2ccccc21` the same measures were over 500 µM and over 500 µM.
`O=C1Nc2ccc(Br)cc2/C1=C1/Nc2ccccc2/C1=N\O` [INDIRUBIN 2]: the IC50 in the data set with Toxoplasma gondii amounted to 1.8 µM. Further, the selectivity ratio in data set [1] was 9. In addition, in data set [2], the CC50 stood at 17 µM.
Take `CC(=O)O/N=C1/C(=C2/C(=O)Nc3cc(Br)ccc32)Nc2ccccc21` [6-BROMOINDIRUBIN-3'-ACETOXIME]: in the data set with Toxoplasma gondii, the IC50 was 3.7 µM. The selectivity ratio in data set [1] turned out to be 12. Besides, in data set [2], the CC50 was 46 µM.
In the case of `O=C1Nc2cc(Cl)c(Br)cc2/C1=C1/Nc2ccccc2/C1=N\O`, the IC50 with Toxoplasma gondii was 2.4 µM. Also, the selectivity ratio in data set [1] was over 210. Besides, in data set [2], the CC50 is over 500 µM.
For `O=C1Nc2ccc(Cl)cc2/C1=C1/Nc2ccccc2/C1=N\O` the same measures were 2.2 µM, 23 and 51 µM.
As for `O=C1c2cc(Cl)ccc2-n2c1nc1ccccc1c2=O`, the IC50 in the data set on Toxoplasma gondii turned out to be 0.011 µM. For the same molecule, the selectivity ratio in data set [1] worked out at 33000. Further, the CC50 in data set [2] was 360 µM.
For `O=Nc1c(-c2c(O)[nH]c3ccc(I)cc23)[nH]c2ccccc12` the same measures were 9.7 µM, 5 and 47 µM.
For the molecule `Cc1ccc2c(c1)/C(=C1/Nc3ccccc3/C1=N\O)C(=O)N2`, the IC50 with Toxoplasma gondii is over 500 µM. Further, the CC50 in data set [2] is over 500 µM.
For `O=C1c2ccc(Br)cc2-n2c1nc1ccccc1c2=O`, in the data set on Toxoplasma gondii, the IC50 came to 3 µM. Moreover, in data set [1], the selectivity ratio was over 160. The CC50 in data set [2] was over 500 µM.
As to `O=C1Nc2cc(Cl)c(Br)cc2/C1=C1/Nc2ccccc2C1=O`, the IC50 in the data set on Toxoplasma gondii was over 500 µM. In addition, the CC50 in data set [2] is over 500 µM.
With `O=Nc1c(-c2c(O)[nH]c3ccc([N+](=O)[O-])cc23)[nH]c2ccccc12`, in the data set with Toxoplasma gondii, the IC50 is 1.1 µM. Also, in data set [1], the selectivity ratio is 25. The CC50 in data set [2] came to 27 µM.
Turning to `O=C1c2ccc(Cl)cc2-n2c1nc1ccccc1c2=O`, the IC50 in the data set on Toxoplasma gondii came out at 6.3 µM. In addition, the selectivity ratio in data set [1] was over 80. Moreover, in data set [2], the CC50 was over 500 µM.
Consider `O=C1c2cc(Br)ccc2-n2c1nc1ccccc1c2=O`, for which the IC50 with Toxoplasma gondii is 0.003 µM. For the same molecule, in data set [1], the selectivity ratio is over 160000. Moreover, the CC50 in data set [2] is over 500 µM.
For the molecule `O=Nc1c(-c2c(O)[nH]c3cc(Cl)ccc23)[nH]c2ccccc12`, the IC50 with Toxoplasma gondii is 0.18 µM. Moreover, the selectivity ratio in data set [1] amounted to 110. The CC50 in data set [2] came to 20 µM.
The matching figures for `O=C1c2ccccc2-n2c1nc1ccccc1c2=O` [TRYPTANTHRIN]: 0.031 µM, 2000 and 62 µM.
The matching figures for `Cc1ccc2c(c1)C(=O)c1nc3ccccc3c(=O)n1-2`: 0.082 µM, over 6100 and over 500 µM.
The matching figures for `O=C1c2cc(Br)c(Cl)cc2-n2c1nc1ccccc1c2=O`: 1.7 µM, 59 and 100 µM.
Consider `O=C1C(c2c(O)[nH]c3ccc(F)cc23)=Nc2ccccc21`, for which the IC50 in the data set with Toxoplasma gondii was over 500 µM. Further, the CC50 in data set [2] is over 500 µM.
`O=Nc1c(-c2c(O)[nH]c3ccccc23)[nH]c2ccccc12` [INDIRUBIN-3-MONOXIME]: the IC50 in the data set on Toxoplasma gondii came out at 3.6 µM. Further, the selectivity ratio in data set [1] was over 139. Further, the CC50 in data set [2] was over 500 µM.
As for `Cc1ccc2[nH]c(O)c(C3=Nc4ccccc4C3=O)c2c1`, in the data set with Toxoplasma gondii, the IC50 is over 500 µM. Further, the CC50 in data set [2] is over 500 µM.
Consider `O=C1C(c2c(O)[nH]c3ccc(I)cc23)=Nc2ccccc21`, for which the IC50 in the data set on Toxoplasma gondii turned out to be 22 µM. For the same molecule, the selectivity ratio in data set [1] was found to be 11. Also, in data set [2], the CC50 was found to be 240 µM.
